Earlier results as cited in paper PMC7395068, “The evolution of strategies to minimise the risk of human drug-induced liver injury (DILI) in drug discovery and development” (Archives of Toxicology, 2020).
Like-named read-outs stand apart in the source and are kept apart here. *1 amine or outer side, *2 acyl side, *3 side chain or, on linkers, in order; H or OH if unused. Where a SMILES comes first, the peptide text is derived from it. Bridges are numbered along the chain shown (N, C = ends). Roman numbers before positions name the chains, in order. [ ]: non-standard residue; d: D form. Actinocin(9to1) = Cc1c2oc3c(C)ccc(C(=O)[*:1])c3nc-2c(C(=O)[*:2])c(N)c1=O; NMeV = CN[C@H](C(=O)O)C(C)C; Sar = CNCC(=O)O

Experiments:
[1] = cited from earlier work
[2] = cited from earlier work; remark: listed apart in the source

## CCN1CCN(C(=O)N[C@@H](C(=O)N[C@@H]2C(=O)N3C(C(=O)O)=C(CSc4nnnn4C)CS[C@H]23)c2ccc(O)cc2)C(=O)C1=O [cefoperazone]
[1]; in vivo
  In vivo DILI: -VE
[2]; in vivo
  DILI +VE (5-8), DILI -VE (-4): +VE
  DILI severity category: vLess-DILI-Concern

## CC(C)(N)Cc1ccccc1 [phentermine]
[1]; […]
  In vivo DILI: -VE
[2]; ref Chen 2016
  DILI +VE (5-8), DILI -VE (-4): +VE
  DILI severity category: vLess-DILI-Concern

## CC(O)(P(=O)(O)O)P(=O)(O)O [etidronic acid]
[1]; […]
  In vivo DILI: -VE
[2]; ref Chen 2016
  DILI +VE (5-8), DILI -VE (-4): -VE
  DILI severity category: vNo-DILI-Concern

## CC(=O)O[C@H]1C(=O)[C@@]2(C)[C@H]([C@H](OC(=O)c3ccccc3)[C@]3(O)C[C@H](OC(=O)[C@H](O)[C@@H](NC(=O)c4ccccc4)c4ccccc4)C(C)=C1C3(C)C)[C@]1(OC(C)=O)CO[C@@H]1C[C@@H]2O [paclitaxel]
[1]; ref O'Brien 2006
  In vivo DILI: +VE
[1]; ref Persson 2013
  In vivo DILI: +VE
[2]; ref Chen 2016
  DILI +VE (5-8), DILI -VE (-4): +VE
  DILI severity category: vLess-DILI-Concern

## C[C@]12CC[C@@H]3c4ccc(O)cc4CC[C@H]3[C@@H]1CCC2=O [estrone]
[1]; in vivo
  In vivo DILI: +VE
[2]; in vivo
  DILI +VE (5-8), DILI -VE (-4): -VE
  DILI severity category: Ambiguous DILI-concern

## Nc1nnc(-c2cccc(Cl)c2Cl)c(N)n1 [lamotrigine]
[1]; […]
  In vivo DILI: +VE
[2]; ref Chen 2016
  DILI +VE (5-8), DILI -VE (-4): +VE
  DILI severity category: vMost-DILI-Concern

## C[C@](N)(Cc1ccc(O)cc1)C(=O)O [metyrosine]
[1]; […]
  In vivo DILI: -VE
[2]; ref Chen 2016
  DILI +VE (5-8), DILI -VE (-4): -VE
  DILI severity category: vNo-DILI-Concern

## CC(C)n1c(/C=C/C(O)CC(O)CC(=O)O)c(-c2ccc(F)cc2)c2ccccc21 (stereo not shown) [fluvastatin]
[1]; ref O'Brien 2006
  In vivo DILI: -VE
[1]; ref Xu 2008
  In vivo DILI: -VE
[2]; ref Chen 2016
  DILI +VE (5-8), DILI -VE (-4): +VE
  DILI severity category: vLess-DILI-Concern

## Cl.N [ammonium chloride]
[1]; in vivo
  In vivo DILI: -VE
[2]; in vivo
  DILI +VE (5-8), DILI -VE (-4): -VE
  DILI severity category: vNo-DILI-Concern

## Cc1cccc(C)c1NC(=O)C1CCCCN1C (stereo not shown) [mepivacaine]
[1]; […]
  In vivo DILI: -VE
[2]; ref Chen 2016
  DILI +VE (5-8), DILI -VE (-4): -VE
  DILI severity category: vNo-DILI-Concern

## C[C@]12CC[C@H]3[C@@H](CCC4=CC(=O)CC[C@@]43C)[C@@H]1CC[C@@H]2O [testosterone]
[1]; in vivo
  In vivo DILI: -VE
[2]; in vivo
  DILI +VE (5-8), DILI -VE (-4): +VE
  DILI severity category: vMost-DILI-Concern

## Cc1c2oc3c(C)ccc(C(=O)N[C@@H]4C(=O)N[C@H](C(C)C)C(=O)N5CCC[C@H]5C(=O)N(C)CC(=O)N(C)[C@@H](C(C)C)C(=O)O[C@@H]4C)c3nc-2c(C(=O)N[C@@H]2C(=O)N[C@H](C(C)C)C(=O)N3CCC[C@H]3C(=O)N(C)CC(=O)N(C)[C@@H](C(C)C)C(=O)O[C@@H]2C)c(N)c1=O [dactinomycin] (I: T[dV]P[Sar][NMeV] / II: T[dV]P[Sar][NMeV]; ester I:1-I:C, II:1-II:C; linker I:N-II:N via Actinocin(9to1))
[1]; in vivo
  In vivo DILI: +VE
[2]; in vivo
  DILI +VE (5-8), DILI -VE (-4): +VE
  DILI severity category: vMost-DILI-Concern

## CC1COc2c(N3CCN(C)CC3)c(F)cc3c(=O)c(C(=O)O)cn1c23 (stereo not shown) [ofloxacin]
[1]; in vivo
  In vivo DILI: +VE
[2]; in vivo
  DILI +VE (5-8), DILI -VE (-4): +VE
  DILI severity category: vLess-DILI-Concern

## Cc1cccc(Nc2ccncc2S(=O)(=O)NC(=O)NC(C)C)c1 [torasemide]
[1]; […]
  In vivo DILI: -VE
[2]; ref Chen 2016
  DILI +VE (5-8), DILI -VE (-4): -VE
  DILI severity category: Ambiguous DILI-concern

## C#CCN(C)[C@H](C)Cc1ccccc1 [selegiline]
[1]; in vivo
  In vivo DILI: -VE
[2]; in vivo
  DILI +VE (5-8), DILI -VE (-4): -VE
  DILI severity category: vNo-DILI-Concern

## Oc1ccc2c(c1)[C@@]13CCCC[C@@]1(O)[C@@H](C2)N(CC1CCC1)CC3 [butorphanol]
[1]; […]
  In vivo DILI: -VE
[2]; ref Chen 2016
  DILI +VE (5-8), DILI -VE (-4): -VE
  DILI severity category: vNo-DILI-Concern

## CN[C@@H](C)Cc1ccccc1 [methamphetamine]
[1]; […]
  In vivo DILI: -VE
[2]; ref Chen 2016
  DILI +VE (5-8), DILI -VE (-4): -VE
  DILI severity category: vNo-DILI-Concern

## COc1ccccc1OCC(O)COC(N)=O (stereo not shown) [methocarbamol]
[1]; […]
  In vivo DILI: -VE
[2]; ref Chen 2016
  DILI +VE (5-8), DILI -VE (-4): -VE
  DILI severity category: Ambiguous DILI-concern

## NC1=NC(=O)C(c2ccccc2)O1 (stereo not shown) [pemoline]
[1]; in vivo
  In vivo DILI: +VE
[2]; in vivo
  DILI +VE (5-8), DILI -VE (-4): +VE
  DILI severity category: vMost-DILI-Concern

## CCOC(=O)C1(c2ccccc2)CCN(C)CC1 [meperidine]
[1]; in vivo
  In vivo DILI: -VE
[2]; in vivo
  DILI +VE (5-8), DILI -VE (-4): -VE
  DILI severity category: vNo-DILI-Concern

## COc1cc2nc(N3CCN(C(=O)C4CCCO4)CC3)nc(N)c2cc1OC (stereo not shown) [terazosin]
[1]; […]
  In vivo DILI: -VE
[1]; ref Aleo 2019
  In vivo DILI: -VE
[2]; ref Chen 2016
  DILI +VE (5-8), DILI -VE (-4): -VE
  DILI severity category: vNo-DILI-Concern

## C[C@H]1[C@H](NC(=O)/C(=N\OC(C)(C)C(=O)O)c2csc(N)n2)C(=O)N1S(=O)(=O)O [aztreonam]
[1]; in vivo
  In vivo DILI: -VE
[2]; in vivo
  DILI +VE (5-8), DILI -VE (-4): -VE
  DILI severity category: Ambiguous DILI-concern

## CCN(CC)CCNC(=O)c1ccc(N)cc1 [procainamide]
[1]; in vivo
  In vivo DILI: +VE
[2]; in vivo
  DILI +VE (5-8), DILI -VE (-4): +VE
  DILI severity category: vLess-DILI-Concern

## COc1cc(Cc2cnc(N)nc2N)cc(OC)c1OC [trimethoprim]
[1]; […]
  In vivo DILI: -VE
[1]; ref Garside 2014
  In vivo DILI: +VE
[2]; ref Chen 2016
  DILI +VE (5-8), DILI -VE (-4): +VE
  DILI severity category: vLess-DILI-Concern

## C[C@@H](O)[C@H]1C(=O)N2C(C(=O)O)=C(S[C@@H]3CN[C@H](C(=O)N(C)C)C3)[C@H](C)[C@H]12 [meropenem]
[1]; […]
  In vivo DILI: +VE
[2]; ref Chen 2016
  DILI +VE (5-8), DILI -VE (-4): +VE
  DILI severity category: vLess-DILI-Concern

## NC(=O)C[S+]([O-])C(c1ccccc1)c1ccccc1 (stereo not shown) [modafinil]
[1]; […]
  In vivo DILI: -VE
[2]; ref Chen 2016
  DILI +VE (5-8), DILI -VE (-4): +VE
  DILI severity category: vLess-DILI-Concern

## Cc1cccc(CN2CCN(C(c3ccccc3)c3ccc(Cl)cc3)CC2)c1 (stereo not shown) [meclizine]
[1]; […]
  In vivo DILI: -VE
[2]; ref Chen 2016
  DILI +VE (5-8), DILI -VE (-4): -VE
  DILI severity category: vNo-DILI-Concern

## CO/N=C(\C(=O)N[C@@H]1C(=O)N2C(C(=O)O)=C(CSc3nc(=O)c(=O)[nH]n3C)CS[C@H]12)c1csc(N)n1 [ceftriaxone]
[1]; […]
  In vivo DILI: -VE
[2]; ref Chen 2016
  DILI +VE (5-8), DILI -VE (-4): +VE
  DILI severity category: vLess-DILI-Concern

## CN(CCOc1ccc(NS(C)(=O)=O)cc1)CCc1ccc(NS(C)(=O)=O)cc1 [dofetilide]
[1]; in vivo
  In vivo DILI: -VE
[2]; in vivo
  DILI +VE (5-8), DILI -VE (-4): -VE
  DILI severity category: vNo-DILI-Concern

## O=C(N[C@H](CO)[C@H](O)c1ccc([N+](=O)[O-])cc1)C(Cl)Cl [chloramphenicol]
[1]; in vivo
  In vivo DILI: +VE
[2]; in vivo
  DILI +VE (5-8), DILI -VE (-4): -VE
  DILI severity category: vNo-DILI-Concern

## capreomycin
[1]; in vivo
  In vivo DILI: -VE
[2]; in vivo
  DILI +VE (5-8), DILI -VE (-4): -VE
  DILI severity category: Ambiguous DILI-concern

## O=C1CCc2cc(OCCCCc3nnnn3C3CCCCC3)ccc2N1 [cilostazol]
[1]; […]
  In vivo DILI: -VE
[2]; ref Chen 2016
  DILI +VE (5-8), DILI -VE (-4): -VE
  DILI severity category: Ambiguous DILI-concern

## CC(C)[C@H]1CC[C@H](C(=O)N[C@H](Cc2ccccc2)C(=O)O)CC1 [nateglinide]
[1]; […]
  In vivo DILI: -VE
[2]; ref Chen 2016
  DILI +VE (5-8), DILI -VE (-4): -VE
  DILI severity category: Ambiguous DILI-concern

## CN1CC[C@]23c4c5ccc(O)c4O[C@H]2C(=O)CC[C@@]3(O)[C@H]1C5 [oxymorphone]
[1]; […]
  In vivo DILI: -VE
[2]; ref Chen 2016
  DILI +VE (5-8), DILI -VE (-4): -VE
  DILI severity category: vNo-DILI-Concern

## CC1(C)NC(=O)N(c2ccc([N+](=O)[O-])c(C(F)(F)F)c2)C1=O [nilutamide]
[1]; […]
  In vivo DILI: +VE
[2]; ref Chen 2016
  DILI +VE (5-8), DILI -VE (-4): +VE
  DILI severity category: vMost-DILI-Concern

## COc1ccc(OC)c(C(O)CNC(=O)CN)c1 (stereo not shown) [midodrine]
[1]; […]
  In vivo DILI: -VE
[2]; ref Chen 2016
  DILI +VE (5-8), DILI -VE (-4): -VE
  DILI severity category: vNo-DILI-Concern

## CNNCc1ccc(C(=O)NC(C)C)cc1 [procarbazine]
[1]; in vivo
  In vivo DILI: +VE
[2]; in vivo
  DILI +VE (5-8), DILI -VE (-4): +VE
  DILI severity category: vLess-DILI-Concern

## C[C@H]1[C@H](c2ccccc2)OCCN1C [phendimetrazine]
[1]; […]
  In vivo DILI: -VE
[2]; ref Chen 2016
  DILI +VE (5-8), DILI -VE (-4): -VE
  DILI severity category: vNo-DILI-Concern

## O=P(O)(O)C(O)(Cc1cccnc1)P(=O)(O)O [risedronate]
[1]; […]
  In vivo DILI: -VE
[2]; ref Chen 2016
  DILI +VE (5-8), DILI -VE (-4): -VE
  DILI severity category: Ambiguous DILI-concern
